Laboratory results published in patent US7666867B2, “Heteroindanes: a new class of potent cannabimimetic ligands” (University of Connecticut, priority 2001, dated 2010).
Where two headings read alike, the source gives them in different places.

Legend:
rats [1] = experiment: Locomotor activity, rate of beam crossings in photocell apparatus; format: in vivo, rat; conditions: intravenous; for effect on locomotor activity: early after administration, FIG. 3 and 4
Description: Rats were injected with varied doses of either some of the inventive compounds or with WIN 55212-2, a known CB1/CB2 receptor agonist. The injected compounds were solubilized in DMSO:40% cyclodextrin (1:10) and intravenously administered.
Locomotor activity was assessed by measuring the rate of beam crossings by rats in a photocell apparatus according to the procedure of M. Cosenza et al, Locomotor Activity and Occupancy of Brain Cannabinoid CB1 Receptors by the Antagonist/Inverse Agonist AM281, Synapse, 38, 477-482 (2000).

CB1 receptor = biological target: T1, CB1 receptor (Rattus norvegicus, UniProt P20272); experiment: CB1 receptor binding assay, [3H]CP-55,940 displacement, rat forebrain membranes
T1 construct: membranes were prepared from rat forebrain membranes; from tissue; host or cells: rat forebrain membranes
T1 sequence (P20272 whole entry): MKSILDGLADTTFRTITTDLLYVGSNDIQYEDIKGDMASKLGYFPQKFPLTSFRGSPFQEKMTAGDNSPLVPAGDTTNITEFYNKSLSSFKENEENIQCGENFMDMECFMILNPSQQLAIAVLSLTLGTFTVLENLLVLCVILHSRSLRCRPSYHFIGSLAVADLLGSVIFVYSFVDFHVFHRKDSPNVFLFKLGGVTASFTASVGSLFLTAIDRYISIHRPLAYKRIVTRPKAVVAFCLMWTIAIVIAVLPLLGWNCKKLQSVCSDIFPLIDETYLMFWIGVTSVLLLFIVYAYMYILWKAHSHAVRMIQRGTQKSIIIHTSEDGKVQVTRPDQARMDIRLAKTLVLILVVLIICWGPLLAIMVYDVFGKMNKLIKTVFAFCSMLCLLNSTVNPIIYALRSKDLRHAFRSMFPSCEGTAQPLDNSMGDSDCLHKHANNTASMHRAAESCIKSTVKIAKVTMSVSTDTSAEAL
Description: The inventive analogs were tested for CB2 receptor binding affinity and for CB1 receptor affinity (to determine selectivity for the CB2 receptor). As used herein, “binding affinity” is represented by the IC50 value which is the concentration of an analog required to occupy the 50% of the total number (Bmax) of the receptors. The lower the IC50 value the higher the binding affinity. […] For the CB1 receptor binding studies, membranes were prepared from rat forebrain membranes according to the procedure of P. R. Dodd et al, A Rapid Method for Preparing Synaptosomes: Comparison with Alternative Procedures, Brain Res., 107-118 (1981). The binding of the novel analogues to the CB1 cannabinold receptor was assessed as described in W. A. Devane et al, Determination and Characterization of a Cannabinoid Receptor in a Rat Brain, Mol. Pharmacol., 34, 605-613 (1988) and A. Charalambous et al, 5′-azido Δ^8− THC: A Novel Photoaffinity Label for the Cannabinoid Receptor, J. Med. Chem., 35, 3076-3079 (1992) with the following changes. The above articles are incorporated by reference herein.
Membranes, previously frozen at −80° C., were thawed on ice. To the stirred suspension was added three volumes of TME (25 mM Tris-HCl buffer, 5 mM MgCl2 and 1 mM EDTA) at a pH 7.4. The suspension was incubated at 4° C. for 30 min. At the end of the incubation, the membranes were pelleted and washed three times with TME.
(§1) The treated membranes were subsequently used in the binding assay described below. Approximately 30 μg of membranes were incubated in silanized 96-well microtiter plate with TME containing 0.1% essentially fatty acid-free bovine serum albumin (BSA), 0.8 nM [^3H] CP-55,940, and various concentrations of test materials in a final volume of […]. The assays were incubated for 1 hour at 30° C. and then immediately filtered using Packard Filtermate 196 harvester and Whatman GF/C filterplates and washed with wash buffer (TME) containing 0.5% BSA. Radioactivity was detected using MicroScint 20 scintillation cocktail added directly to the dried filterplates, and the filterplates were counted using a Packard Instruments Top-Count. Nonspecific binding was assessed using 100 nM CP-55,940. Data collected from three independent experiments performed with duplicate determinations was normalized between 100% and 0% specific binding for [^3H] CP-55,940, determined using buffer and 100 nM CP-55,940. The normalized data was analyzed using a 4-parameter nonlinear logistic equation to yield IC50 values. Data from at least two indeperident experiments performed in duplicate was used to calculate IC50 values which were converted to Ki values using the assumptions of Cheng et al, Relationship Between the Inhibition Constant (Ki) and the concentratiori of Inhibitor which causes 50% Inhibition (IC50) of an Enzymatic Reaction, Biochem. Pharmacol., 22, 3099-3102, (1973), which is incorporated by reference herein.

CB2 receptor = biological target: T2, CB2 receptor (Mus musculus, UniProt P47936); experiment: CB2 receptor binding assay, [3H]CP-55,940 displacement, mouse spleen membranes
T2 construct: membranes were prepared from frozen mouse spleen; from tissue; host or cells: frozen mouse spleen membranes
T2 sequence (P47936 whole entry): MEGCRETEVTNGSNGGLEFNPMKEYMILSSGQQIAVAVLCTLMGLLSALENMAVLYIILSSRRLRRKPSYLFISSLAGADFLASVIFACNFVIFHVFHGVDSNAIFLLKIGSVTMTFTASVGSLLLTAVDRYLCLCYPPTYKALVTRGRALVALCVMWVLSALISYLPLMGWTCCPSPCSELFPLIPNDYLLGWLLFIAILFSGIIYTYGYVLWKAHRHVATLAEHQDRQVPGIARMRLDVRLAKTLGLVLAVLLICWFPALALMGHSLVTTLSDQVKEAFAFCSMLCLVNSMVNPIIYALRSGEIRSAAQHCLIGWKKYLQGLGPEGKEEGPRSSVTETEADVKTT
Description: as §1
For the CB2 receptor binding studies, membranes were prepared from frozen mouse spleen essentially according to the procedure of P. R. Dodd et al, A Rapid Method for Preparing Synaptosomes: Comparison with Alternative Procedures, Brain Res., 226, 107-118 (1981) which is incorporated by reference herein. Silanized centrifuge tubes were used throughout to minimize receptor loss due to adsorption. The CB2 binding assay was conducted in the same manner as for the CB1 binding assay. The binding affinities (Ki) were also expressed in nanomoles (nM).

rats [2] = experiment: Peripheral antinociception, paw withdrawal latency to thermal stimulus; format: in vivo, rat; conditions: ipsilateral i.paw injection, measured 25 min after injection, FIG. 1 and 2
Description: Using rats as test subjects, varied doses of some of the inventive compounds were injected subcutaneously in the dorsal surface of the paw (i.paw, 50 μl). Measurements were taken 25 min after i.paw injection. Assessment of antinociceptive action was made by evaluating the response latency to removal of the paw from a focused source of thermal stimulation, as described by T. P. Malan Jr., CB2 Cannabinoid Receptor-mediated Peridpheral Antinociception, Pain, 93, 239-245 (2001), the content of which is incorporated by reference herein. Rats were allowed to acclimate within Plexiglas enclosures on a clear glass plate maintained at 30° C. A radiant heat source (a high-intensity projector lamp) was focused onto the plantar surface of the hindpaw. Activation of the heat source activated a timer, which stopped when withdrawal of the paw was detected with a photodetector. A maximal cut-off of 40 seconds (s) was utilized to prevent tissue damage.
Antinociception is expressed as the percent of the maximum possible effect (% MPE), using the formula: % MPE=(WL-CL)/(CO-CL), where WL is the withdrawal latency obtained experimentally, CL is the control (baseline) value before drug administration, and CO is the cut-off value (40 s). Dose-response curves were generated. Significance was defined as P<0.05.

[3] = rat forebrain membranes, 0.8 nM [3H]CP-55,940, read-out: Ki (nM) CB1

| SMILES | cannabinoid-like behaviour in the locomotor assay (rats [1]) | effect on locomotor activity (rats [1]) | Ki (CB1 receptor) [nM] | Ki (CB2 receptor) [nM] | antinociception to a thermal stimulus applied to the hindpaw (rats [2]) | Ki (CB1 receptor; [3]) [nM] |
| --- | --- | --- | --- | --- | --- | --- |
| Cc1c(C(=O)c2cccc3ccccc23)c2cccc3c2n1[C@H](CN1CCOCC1)CO3 [WIN 55212-2, reference compound] | produced the typical cannabinoid-like catalepsy and inhibition of locomotion | significantly reduced locomotor activity | – | – | – | – |
| O=C(NC12CC3CC(CC(C3)C1)C2)c1nn(CCN2CCOCC2)c2ccccc12 [compound 1] | – | – | 6.84 | 0.147 | – | – |
| CN1CCCCC1Cn1nc(C(=O)NC23CC4CC(CC(C4)C2)C3)c2ccccc21 (stereo not drawn) [compound 2] | – | – | 47.5 | 8.74 | – | – |
| N#CCCCCn1nc(C(=O)NC23CC4CC(CC(C4)C2)C3)c2ccccc21 [compound 3] | produced the typical cannabinoid-like catalepsy and inhibition of locomotion | significantly reduced locomotor activity | 2.28 | 0.309 | produced dose-dependent antinociception | – |
| O=C(NC12CC3CC(CC(C3)C1)C2)c1nn(CCCCCl)c2ccccc12 [compound 4] | – | – | 1.65 | 1.34 | – | – |
| O=C(NC12CC3CC(CC(C3)C1)C2)c1nn(CCCCI)c2ccccc12 [compound 5] | – | – | 0.596 | 0.164 | – | – |
| CN(C)CCCn1nc(C(=O)NC23CC4CC(CC(C4)C2)C3)c2ccccc21 [compound 6] | – | – | – | 20.9 | – | 443 |
| O=C(Nc1cccc2ccccc12)c1nn(CCCCCl)c2ccccc12 [compound 7] | – | – | 0.268 | 0.135 | – | – |
| O=C(Nc1cccc2ccccc12)c1nn(CCCCI)c2ccccc12 [compound 8] | – | – | 13.7 | 27 | – | – |
| CN(C)CCCn1nc(C(=O)Nc2cccc3ccccc23)c2ccccc21 [compound 9] | – | – | – | 235 | – | 451 |
| CN1CCCCC1Cn1nc(C(=O)Nc2cccc3ccccc23)c2ccccc21 (stereo not drawn) [compound 10] | – | – | 15 | 8.04 | – | – |
| O=C(NN1CCCCC1)c1nn(-c2ccccc2)c2cc(Br)ccc12 [compound 11] | – | – | – | 84.7 | – | 1850 |
